Experimental data reported in ChEMBL document CHEMBL1125876, “Conformationally defined neurotransmitter analogues. Selective inhibition of glutamate uptake by one pyrrolidine-2,4-dicarboxylate diastereomer” (1991).

Legend:
Set-up in all cases: scale not given: the % may be the effect or the level left
Rattus norvegicus = organism: Rattus norvegicus; test: Comparative inhibition of L-Glutamate uptake at the concentration of 5 uM of [3H]-L- glutamate radioligand; format: functional
[1] = biological target: T1, Glutamate NMDA receptor (Rattus norvegicus) (UniProt P35439+Q00959+Q00960+Q00961+Q62645+Q8VHN2+Q9R1M7); test: Compound tested for its ability to inhibit [3H]- -L-Glu binding to N-methyl-D-aspartate glutamate receptor at the concentration of 100 uM; format: protein-complex assay
[2] = biological target: Glutamate receptor ionotropic, kainate 2 (Rattus norvegicus) (UniProt P42260); test: Compound tested for its ability to inhibit [3H]- KA binding to ionotropic glutamate receptor kainate at the concentration of 100 uM
[3] = biological target: T1, Glutamate NMDA receptor (Rattus norvegicus); test: Compound tested for its ability to inhibit [3H]- -L-Glu binding to N-methyl-D-aspartate glutamate receptor at the concentration of 20 uM; format: protein-complex assay

Sequence of Glutamate receptor ionotropic, kainate 2 (Rattus norvegicus) (P42260 whole entry): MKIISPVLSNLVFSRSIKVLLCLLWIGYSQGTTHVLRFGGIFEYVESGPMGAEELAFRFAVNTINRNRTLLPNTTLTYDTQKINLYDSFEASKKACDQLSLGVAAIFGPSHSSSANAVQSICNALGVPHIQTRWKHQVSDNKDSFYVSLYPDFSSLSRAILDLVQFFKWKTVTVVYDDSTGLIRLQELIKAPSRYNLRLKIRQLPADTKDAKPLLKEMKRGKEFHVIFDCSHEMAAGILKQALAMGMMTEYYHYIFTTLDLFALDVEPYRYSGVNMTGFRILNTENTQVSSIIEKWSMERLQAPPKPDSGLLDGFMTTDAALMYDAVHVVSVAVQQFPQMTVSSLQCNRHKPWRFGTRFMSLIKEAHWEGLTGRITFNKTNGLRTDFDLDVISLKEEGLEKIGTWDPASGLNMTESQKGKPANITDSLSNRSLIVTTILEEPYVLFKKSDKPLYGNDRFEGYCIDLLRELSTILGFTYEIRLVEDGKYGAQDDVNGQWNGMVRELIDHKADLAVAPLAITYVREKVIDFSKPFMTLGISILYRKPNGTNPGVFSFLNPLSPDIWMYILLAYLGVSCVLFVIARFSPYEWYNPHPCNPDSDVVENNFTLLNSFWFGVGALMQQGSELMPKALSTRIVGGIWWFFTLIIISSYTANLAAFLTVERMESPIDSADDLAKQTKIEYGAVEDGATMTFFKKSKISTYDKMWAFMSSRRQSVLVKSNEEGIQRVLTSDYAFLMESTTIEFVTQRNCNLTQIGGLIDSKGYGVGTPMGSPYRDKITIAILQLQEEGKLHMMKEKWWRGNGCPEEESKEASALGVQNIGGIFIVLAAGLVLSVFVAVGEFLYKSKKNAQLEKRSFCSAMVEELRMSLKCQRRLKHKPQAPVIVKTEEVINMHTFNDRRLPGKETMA

SMILES | Control [1] [%] | Control [2] [%] | Control [3] [%] | Control (Rattus norvegicus) [%]
N[C@H](CC(=O)O)C(=O)O [D-ASPARTATE] |  |  |  | 58
CC(C)[C@H]1CN[C@H](C(=O)O)[C@H]1CC(=O)O [DIHYDROKAINATE] |  |  |  | 93
O=C(O)[C@@H]1CN[C@@H](C(=O)O)C1 | 95 | 92 |  | 

The next lines start with results.

Control [1] [%] | Control [2] [%] | Control [3] [%] | SMILES | Control (Rattus norvegicus) [%]
89 | 100 |  | O=C(O)[C@@H]1CN[C@H](C(=O)O)C1 | 
38 | 101 | 76 | O=C(O)[C@H]1CN[C@@H](C(=O)O)C1 | 
87 | 102 |  | O=C(O)[C@H]1CN[C@H](C(=O)O)C1 | 45
